US20170129916A1, “NOVEL BETULINIC PROLINE IMIDAZOLE DERIVATIVES AS HIV INHIBITORS” (HETERO RESEARCH FOUNDATION, priority 2014, published 2017)

Test: Single dose oral pharmacokinetic study
Type: in vivo
Settings: mouse, mice, 30 mg/kg, plasma; for AUC(0-t): read-out: Mice oral PK @30 mg/kg AUC 0-t; for Cmax: read-out: Mice oral PK @30 mg/kg Cmax
Protocol: The test item was administered through oral route to animals (rat/mice) at 30 mg/kg dose in a suitable vehicle at 10 ml/kg dose volume. Blood samples (˜50 uL at each time point) were collected from retro-orbital plexus using K3 EDTA as anticoagulant in eppend; orf tubes at defined time intervals under light ether anesthesia. The samples were centrifuged at 3500×g to separate plasma and stored at −80° C. until analysis.
Sample analysis: Test samples were analyzed using LC-MS-MS after developing fit-for-purpose method for each of test compound.

Compound | AUC(0-t) | Cmax
C=C(C)[C@@H]1CC[C@]2(C(=O)N3CCC[C@H]3c3ncc(-c4ccc(C(F)(F)F)cc4)[nH]3)CC[C@]3(C)[C@H](CC[C@@H]4[C@@]5(C)CC[C@H](OC(=O)[C@H]6C[C@@H](C(=O)O)C6(C)C)C(C)(C)[C@@H]5CC[C@]43C)[C@@H]12 [Compound 6, (1R,3S)-2,2-dimethyl-3-((((1R,3aS,5aR,5bR,7aR,9S,11aR,11bR,13aR,13bR)-5a,5b,8,8,11a-pentamethyl-1-(prop-1-en-2-yl)-3a-((S)-2-(5-(4-(trifluoromethyl)phenyl)-1H-imidazol-2-yl)pyrrolidine-1-carbonyl)icosahydro-1H-cyclopenta[a]chrysen-9-yl)oxy)carbonyl)cyclobutane-1-carboxylic acid] | 93.4 µg·h/mL | 3100 ng/mL
C=C(C)[C@@H]1CC[C@]2(C(=O)N3CCC[C@H]3c3ncc(-c4ccc(Cl)cc4)[nH]3)CC[C@]3(C)[C@H](CC[C@@H]4[C@@]5(C)CC[C@H](OC(=O)[C@H]6C[C@@H](C(=O)O)C6(C)C)C(C)(C)[C@@H]5CC[C@]43C)[C@@H]12 [Compound 19, (1R,3S)-3-((((1R,3aS,5aR,5bR,7aR,9S,11aR,11bR,13aR,13bR)-3a-((S)-2-(5-(4-chlorophenyl)-1H-imidazol-2-yl)pyrrolidine-1-carbonyl)-5a,5b,8,8,11a-pentamethyl-1-(prop-1-en-2-yl)icosahydro-1H-cyclopenta[a]chrysen-9-yl)oxy)carbonyl)-2,2-dimethylcyclobutane-1-carboxylic acid] | 183 µg·h/mL | 7500 ng/mL
C=C(C)[C@@H]1CC[C@]2(C(=O)N3C4CCC3CC(n3c(C)nnc3C(C)C)C4)CC[C@]3(C)[C@H](CC[C@@H]4[C@@]5(C)CC[C@H](OC(=O)[C@H]6C[C@@H](C(=O)O)C6(C)C)C(C)(C)[C@@H]5CC[C@]43C)[C@@H]12 (stereo partly drawn) [Compound 38, (1R,3S)-3-((((1R,3aS,5aR,5bR,7aR,9S,11aR,11bR,13aR,13bR)-3a-((1R,3R,5S)-3-(3-isopropyl-5-methyl-4H-1,2,4-triazol-4-yl)-8-azabicyclo[3.2.1]octane-8-carbonyl)-5a,5b,8,8,11a-pentamethyl-1-(prop-1-en-2-yl)icosahydro-1H-cyclopenta[a]chrysen-9-yl)oxy)carbonyl)-2,2-dimethylcyclobutane-1-carboxylic acid] | 127 µg·h/mL | 7350 ng/mL
C=C(C)[C@@H]1CC[C@]2(C(=O)N3CCC[C@H]3c3ncc(-c4ccccn4)[nH]3)CC[C@]3(C)[C@H](CC[C@@H]4[C@@]5(C)CC[C@H](OC(=O)CC(C)(C)C(=O)O)C(C)(C)[C@@H]5CC[C@]43C)[C@@H]12 [Compound 39, 2,2-dimethyl-4-oxo-4-(((1R,3aS,5aR,5bR,7aR,9S,11aR,11bR,13aR,13bR)-5a,5b,8,8,11a-pentamethyl-1-(prop-1-en-2-yl)-3a-((S)-2-(5-(pyridin-2-yl)-1H-imidazol-2-yl)pyrrolidine-1-carbonyl)icosahydro-1H-cyclopenta[a]chrysen-9-yl)oxy)butanoic acid] | 80.9 µg·h/mL | 5690 ng/mL
C=C(C)[C@@H]1CC[C@]2(C(=O)N3CCC[C@H]3c3ncc(-c4ccc(F)cc4)[nH]3)CC[C@]3(C)[C@H](CC[C@@H]4[C@@]5(C)CC[C@H](OC(=O)CC(C)(C)CC(=O)O)C(C)(C)[C@@H]5CC[C@]43C)[C@@H]12 [Compound 41, 5-(((1R,3aS,5aR,5bR,7aR,9S,11aR,11bR,13aR,13bR)-3a-((S)-2-(5-(4-fluorophenyl)-1H-imidazol-2-yl)pyrrolidine-1-carbonyl)-5a,5b,8,8,11a-pentamethyl-1-(prop-1-en-2-yl)icosahydro-1H-cyclopenta[a]chrysen-9-yl)oxy)-3,3-dimethyl-5-oxopentanoic acid] | 258 µg·h/mL | 14500 ng/mL
C=C(C)[C@@H]1CC[C@]2(C(=O)N3C4CCC3CC(n3c(C)nnc3C(C)C)C4)CC[C@]3(C)[C@H](CC[C@@H]4[C@@]5(C)CC[C@H](OC(=O)CC(C)(C)C(=O)O)C(C)(C)[C@@H]5CC[C@]43C)[C@@H]12 (stereo partly drawn) [Compound 49, 4-(((1R,3aS,5aR,5bR,7aR,9S,11aR,11bR,13aR,13bR)-3a-((1R,3R,5S)-3-(3-isopropyl-5-methyl-4H-1,2,4-triazol-4-yl)-8-azabicyclo[3.2.1]octane-8-carbonyl)-5a,5b,8,8,11a-pentamethyl-1-(prop-1-en-2-yl)icosahydro-1H-cyclopenta[a]chrysen-9-yl)oxy)-2,2-dimethyl-4-oxobutanoic acid] | 111 µg·h/mL | 10800 ng/mL
COCCOc1ccc(-c2cnc([C@@H]3CCCN3C(=O)[C@]34CC[C@@H](C5(C)CC5)[C@@H]3[C@H]3CC[C@@H]5[C@@]6(C)CC[C@H](OC(=O)[C@H]7C[C@@H](C(=O)O)C7(C)C)C(C)(C)[C@@H]6CC[C@@]5(C)[C@]3(C)CC4)[nH]2)cc1 [Compound 52, (1R,3S)-3-((((1R,3aS,5aR,5bR,7aR,9S,11aR,11bR,13aR,13bR)-3a-((S)-2-(5-(4-(2-methoxyethoxy)phenyl)-1H-imidazol-2-yl)pyrrolidine-1-carbonyl)-5a,5b,8,8,11a-pentamethyl-1-(1-methylcyclopropyl)icosahydro-1H-cyclopenta[a]chrysen-9-yl)oxy)carbonyl)-2,2-dimethylcyclobutane-1-carboxylic acid] | 273 µg·h/mL | 9610 ng/mL
CC1([C@@H]2CC[C@]3(C(=O)N4CCC[C@H]4c4ncc(-c5ccc[n+]([O-])c5)[nH]4)CC[C@]4(C)[C@H](CC[C@@H]5[C@@]6(C)CC[C@H](OC(=O)[C@H]7C[C@@H](C(=O)O)C7(C)C)C(C)(C)[C@@H]6CC[C@]54C)[C@@H]23)CC1 [Compound 53, 3-(2-((S)-1-((1R,3aS,5aR,5bR,7aR,9S,11aR,11bR,13aR,13bR)-9-(((1S,3R)-3-carboxy-2,2-dimethylcyclobutane-1-carbonyl)oxy)-5a,5b,8,8,11a-pentamethyl-1-(1-methylcyclopropyl)icosahydro-1H-cyclopenta[a]chrysene-3a-carbonyl)pyrrolidin-2-yl)-1H-imidazol-5-yl)pyridine-1-oxide] | 471 µg·h/mL | 14700 ng/mL
Cc1nnc(C(C)C)n1C1CCN(C(=O)[C@]23CC[C@@H](C4(C)CC4)[C@@H]2[C@H]2CC[C@@H]4[C@@]5(C)CC[C@H](OC(=O)[C@H]6C[C@@H](C(=O)O)C6(C)C)C(C)(C)[C@@H]5CC[C@@]4(C)[C@]2(C)CC3)CC1 [Compound 58, (1R,3S)-3-((((1R,3aS,5aR,5bR,7aR,9S,11aR,11bR,13aR,13bR)-3a-(4-(3-isopropyl-5-methyl-4H-1,2,4-triazol-4-yl)piperidine-1-carbonyl)-5a,5b,8,8,11a-pentamethyl-1-(1-methylcyclopropyl)icosahydro-1H-cyclopenta[a]chrysen-9-yl)oxy)carbonyl)-2,2-dimethylcyclobutane-1-carboxylic acid] | 104 µg·h/mL | 3050 ng/mL
Cc1nnc(C(C)C)n1C1CC2CCC(C1)N2C(=O)[C@]12CC[C@@H](C3(C)CC3)[C@@H]1[C@H]1CC[C@@H]3[C@@]4(C)CC[C@H](OC(=O)[C@H]5C[C@@H](C(=O)O)C5(C)C)C(C)(C)[C@@H]4CC[C@@]3(C)[C@]1(C)CC2 (stereo partly drawn) [Compound 60, (1R,3S)-3-((((1R,3aS,5aR,5bR,7aR,9S,11aR,11bR,13aR,13bR)-3a-((1R,3R,5S)-3-(3-isopropyl-5-methyl-4H-1,2,4-triazol-4-yl)-8-azabicyclo[3.2.1]octane-8-carbonyl)-5a,5b,8,8,11a-pentamethyl-1-(1-methylcyclopropyl)icosahydro-1H-cyclopenta[a]chrysen-9-yl)oxy)carbonyl)-2,2-dimethylcyclobutane-1-carboxylic acid] | 295 µg·h/mL | 6520 ng/mL
Cc1nnc(C(C)C)n1C1CCN(C(=O)[C@]23CC[C@@H](C4(C)CC4)[C@@H]2[C@H]2CC[C@@H]4[C@@]5(C)CC[C@H](OC(=O)CC(C)(C)C(=O)O)C(C)(C)[C@@H]5CC[C@@]4(C)[C@]2(C)CC3)CC1 [Compound 69, 4-(((1R,3aS,5aR,5 bR,7aR,9S,11aR,11bR,13aR,13bR)-3a-(4-(3-isopropyl-5-methyl-4H-1,2,4-triazol-4-yl)piperidine-1-carbonyl)-5a,5b,8,8,11a-pentamethyl-1-(1-methylcyclopropyl)icosahydro-1H-cyclopenta[a]chrysen-9-yl)oxy)-2,2-dimethyl-4-oxobutanoic acid] | 238 µg·h/mL | 16700 ng/mL
Cc1nnc(C(C)C)n1C1CC2CCC(C1)N2C(=O)[C@]12CC[C@@H](C3(C)CC3)[C@@H]1[C@H]1CC[C@@H]3[C@@]4(C)CC[C@H](OC(=O)CC(C)(C)C(=O)O)C(C)(C)[C@@H]4CC[C@@]3(C)[C@]1(C)CC2 (stereo partly drawn) [Compound 71, 4-(((1R,3aS,5aR,5bR,7aR,9S,11aR,11bR,13aR,13bR)-3a-((R,3R,5S)-3-(3-isopropyl-5-methyl-4H-1,2,4-triazol-4-yl)-8-azabicyclo[3.2.1]octane-8-carbonyl)-5a,5b,8,8,11a-pentamethyl-1-(1-methylcyclopropyl)icosahydro-1H-cyclopenta[a]chrysen-9-yl)oxy)-2,2-dimethyl-4-oxobutanoic acid] | 298 µg·h/mL | 15800 ng/mL
